US20060281771A1, “SYNERGISTIC MODULATION OF FLT3 KINASE USING AMINOQUINOLINE AND AMINOQUINAZOLINE KINASE MODULATORS” (priority 2005, published 2006)
pIC50: −log10 of the molar value.

Biological target: T1, wild-type FLT3 phosphorylation in Baf3 FLT3 cells (Homo sapiens, UniProt P36888)
T1 construct: host or cells: Baf3 (murine B cell lymphoma line)
T1 sequence (P36888 27-993): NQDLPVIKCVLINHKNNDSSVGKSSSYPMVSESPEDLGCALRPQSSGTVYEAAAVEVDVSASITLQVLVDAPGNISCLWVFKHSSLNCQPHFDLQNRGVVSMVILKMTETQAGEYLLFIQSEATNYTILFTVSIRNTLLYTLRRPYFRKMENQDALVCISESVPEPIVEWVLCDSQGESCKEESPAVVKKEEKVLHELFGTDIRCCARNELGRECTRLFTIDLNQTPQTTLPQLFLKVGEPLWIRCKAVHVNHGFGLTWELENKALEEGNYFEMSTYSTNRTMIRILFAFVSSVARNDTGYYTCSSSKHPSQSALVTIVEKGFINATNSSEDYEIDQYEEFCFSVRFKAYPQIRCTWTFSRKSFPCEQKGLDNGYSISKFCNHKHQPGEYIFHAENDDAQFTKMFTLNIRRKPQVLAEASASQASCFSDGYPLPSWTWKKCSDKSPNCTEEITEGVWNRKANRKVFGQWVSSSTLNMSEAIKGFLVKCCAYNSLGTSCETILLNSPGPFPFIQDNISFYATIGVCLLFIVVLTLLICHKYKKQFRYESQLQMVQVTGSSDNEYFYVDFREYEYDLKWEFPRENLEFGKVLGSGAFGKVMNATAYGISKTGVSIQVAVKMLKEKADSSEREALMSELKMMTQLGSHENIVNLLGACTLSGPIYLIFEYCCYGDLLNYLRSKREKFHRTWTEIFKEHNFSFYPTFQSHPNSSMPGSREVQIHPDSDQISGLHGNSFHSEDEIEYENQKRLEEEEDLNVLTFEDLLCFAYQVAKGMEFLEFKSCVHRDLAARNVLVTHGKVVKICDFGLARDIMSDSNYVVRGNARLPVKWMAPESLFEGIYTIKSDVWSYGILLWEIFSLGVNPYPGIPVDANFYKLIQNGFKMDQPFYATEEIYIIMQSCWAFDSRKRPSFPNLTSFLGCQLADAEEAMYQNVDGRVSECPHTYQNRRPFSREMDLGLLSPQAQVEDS
Assay: Cell-based FLT3 receptor ELISA
Conditions: FLT ligand-induced FLT3 phosphorylation
Experimental: Specific cellular inhibition of FLT ligand-induced wild-type FLT3 phosphorylation was measured in the following manner: Baf3 FLT3 cells overexpressing the FLT3 receptor were obtained from Dr. Michael Heinrich (Oregon Health and Sciences University). The Baf3 FLT3 cell lines were created by stable transfection of parental Baf3 cells (a murine B cell lymphoma line dependent on the cytokine IL-3 for growth) with wild-type FLT3. Cells were selected for their ability to grow in the absence of IL-3 and in the presence of FLT3 ligand.
Baf3 cells were maintained in RPMI 1640 with 10% FBS, penn/strep and 10 ng/ml FLT ligand at 37° C., 5% CO2. To measure direct inhibition of the wild-type FLT3 receptor activity and phosphorylation a sandwich ELISA method was developed similar to those developed for other RTKs (see Sadick, M D, Sliwkowski, M X, Nuijens, A, Bald, L, Chiang, N, Lofgren, J A, Wong W L T. Analysis of Heregulin-Induced ErbB2 Phosphorylation with a High-Throughput Kinase Receptor Activation Enzyme-Linked Immunsorbent Assay, Analytical Biochemistry. 1996; 235:207-214 and Baumann C A, Zeng L, Donatelli R R, Maroney A C. Development of a quantitative, high-throughput cell-based enzyme-linked immunosorbent assay for detection of colony-stimulating factor-1 receptor tyrosine kinase inhibitors. J Biochem Biophys Methods. 2004; 60:69-79.). 200 μL of Baf3FLT3 cells (1×10^6/mL) were plated in 96 well dishes in RPMI 1640 with 0.5% serum and 0.01 ng/mL IL-3 for 16 hours prior to 1 hour compound or DMSO vehicle incubation. Cells were treated with 100 ng/mL Flt ligand (R&D Systems Cat# 308-FK) for 10 min. at 37° C. Cells were pelleted, washed and lysed in 100 ul lysis buffer (50 mM Hepes, 150 mM NaCl, 10% Glycerol, 1% Triton-X-100, 10 mM NaF, 1 mM EDTA, 1.5 mM MgCl2, 10 mM NaPyrophosphate) supplemented with phosphatase (Sigma Cat# P2850) and protease inhibitors (Sigma Cat #P8340). Lysates were cleared by centrifugation at 1000×g for 5 minutes at 4° C. Cell lysates were transferred to white wall 96 well microtiter (Costar #9018) plates coated with 50 ng/well anti-FLT3 antibody (Santa Cruz Cat# sc-480) and blocked with SeaBlock reagent (Pierce Cat#37527). Lysates were incubated at 4° C. for 2 hours. Plates were washed 3× with 200 ul/well PBS/0.1% Triton-X-100. Plates were then incubated with 1:8000 dilution of HRP-conjugated anti-phosphotyrosine antibody (Clone 4G10, Upstate Biotechnology Cat#16-105) for 1 hour at room temperature. Plates were washed 3× with 200 ul/well PBS/0.1% Triton-X-100. Signal detection with Super Signal Pico reagent (Pierce Cat#37070) was done according to manufacturer's instruction with a Berthold microplate luminometer. All data points are an average of triplicate samples. […] Inhibition and IC50 data analysis was done with GraphPad Prism using a non-linear regression fit with a multiparamater, sigmoidal dose-response (variable slope) equation.

| pIC50 | Structure (SMILES) |
| --- | --- |
| 5.51 | COc1cc2ncc(C#N)c(N3CCC(NC(=O)Nc4ccc(OC(C)C)cc4)C3)c2cc1OC (centres unmarked) [Compound 29, 1-[1-(3-Cyano-6,7-dimethoxy-quinolin-4-yl)-pyrrolidin-3-yl]-3-(4-isopropoxy-phenyl)-urea] |
| 6.68 | COc1cc2ncnc(N3CCC(N(C)C(=O)Nc4ccc(C(C)C)cc4)C3)c2cc1OC (centres unmarked) [Compound 19, 1-[1-(6,7-Dimethoxy-quinazolin-4-yl)-pyrrolidin-3-yl]-3-(4-isopropyl-phenyl)-1-methyl-urea] |
| 7.20 | COc1cc2ncnc(N3CCC(NC(=O)Cc4ccc(C(C)C)cc4)CC3)c2cc1OC [Compound 21, N-[1-(6,7-Dimethoxy-quinazolin-4-yl)-piperidin-4-yl]-2-(4-isopropyl-phenyl)-acetamide] |
| 8.22 | COc1cc2ncnc(N3CCC(CC(=O)Nc4ccc(C(C)C)cc4)CC3)c2cc1OC [Compound 5, 2-[1-(6,7-Dimethoxy-quinazolin-4-yl)-piperidin-4-yl]-N-(4-isopropyl-phenyl)-acetamide] |
| 7.31 | COc1cc2ncnc(N3CCC(CNC(=O)Nc4ccc(C(C)C)cc4)CC3)c2cc1OC [Compound 18, 1-[1-(6,7-Dimethoxy-quinazolin-4-yl)-piperidin-4-ylmethyl]-3-(4-isopropyl-phenyl)-urea] |
| 6.79 | CCN(CC)CC#Cc1ccc2ncnc(N3CCC(OC(=O)Nc4ccc(C(C)C)cc4)C3)c2c1 (centres unmarked) [Compound 17, (4-Isopropyl-phenyl)-3-carbamic acid 1-[6-(3-diethylamino-prop-1-ynyl)-quinazolin-4-yl]-pyrrolidin-3-yl ester] |
| 6.44 | COc1cc2ncnc(N3CCC(NC(=O)Nc4ccc(OC(C)C)cc4)C3)c2cc1OC (centres unmarked) [Compound 8, 1-[1-(6,7-Dimethoxy-quinazolin-4-yl)-pyrrolidin-3-yl]-3-(4-isopropoxy-phenyl)-urea] |
| 6.93 | COc1cc2ncnc(N3CCC(OC(=O)Nc4ccc(OC(C)C)cc4)CC3)c2cc1OC [Compound 3, (4-Isopropoxy-phenyl)-carbamic acid 1-(6,7-dimethoxy-quinazolin-4-yl)-piperidin-4-yl ester] |
| 5.96 | COc1cc2ncc(C#N)c(N3CCC(OC(=O)Nc4ccc(C(C)C)cc4)C3)c2cc1OC (centres unmarked) [Compound 37, (4-Isopropyl-phenyl)-carbamic acid 1-(3-cyano-6,7-dimethoxy-quinolin-4-yl)-pyrrolidin-3-yl ester] |
| 5.92 | COc1cc2ncc(C#N)c(N3CCC(OC(=O)Nc4ccc(OC(C)C)cc4)C3)c2cc1OC (centres unmarked) [Compound 32, (4-Isopropoxy-phenyl)-carbamic acid 1-(3-cyano-6,7-dimethoxy-quinolin-4-yl)-pyrrolidin-3-yl ester] |
| 5.96 | COc1cc2ncnc(N3CCCC(OC(=O)Nc4ccc(C(C)C)cc4)C3)c2cc1OC (centres unmarked) [Compound 31, (4-Isopropyl-phenyl)-carbamic acid 1-[1-(6,7-dimethoxy-quinazolin-4-yl)-piperidin-3-yl]ester] |
| 6.48 | COc1cc2ncc(C#N)c(N3CCC(NC(=O)Nc4ccc(C(C)C)cc4)C3)c2cc1OC (centres unmarked) [Compound 26, 1-[1-(3-Cyano-6,7-dimethoxy-quinolin-4-yl)-pyrrolidin-3-yl]-3-(4-isopropyl-phenyl)-urea] |
| 5.72 | COc1cc2ncnc(N3CCCC(NC(=O)Nc4ccc(C(C)C)cc4)C3)c2cc1OC (centres unmarked) [Compound 28, 1-[1-(6,7-Dimethoxy-quinazolin-4-yl)-piperidin-3-yl]-3-(4-isopropyl-phenyl)-urea] |
| 7.05 | COc1cc2ncnc(N3CCC(C(=O)Nc4ccc(C(C)C)cc4)CC3)c2cc1OC [Compound 13, 1-(6,7-Dimethoxy-quinazolin-4-yl)-piperidine-4-carboxylic acid (4-isopropyl-phenyl)-amide] |
| 6.85 | COc1cc2ncnc(N3CCC(NC(=O)Nc4ccc(C(C)C)cc4)C3)c2cc1OC (centres unmarked) [Compound 7, 1-[1-(6,7-Dimethoxy-quinazolin-4-yl)-pyrrolidin-3-yl]-3-(4-isopropyl-phenyl)-urea] |
| 8.40 | CC(C)c1ccc(NC(=O)OC2CCN(c3ncnc4ccc(C#CCO)cc34)C2)cc1 (centres unmarked) [Compound 14, (4-Isopropyl-phenyl)-carbamic acid 1-[6-(3-hydroxy-prop-1-ynyl)-quinazolin-4-yl]-pyrrolidin-3-yl ester] |
| 7.34 | COc1cc2ncnc(N3CCC(CC(=O)Nc4ccc(C(C)C)cc4)C3)c2cc1OC (centres unmarked) [Compound 6, 2-[11-(6,7-Dimethoxy-quinazolin-4-yl)-pyrrolidin-3-yl]-N-(4-isopropyl-phenyl)-acetamide] |
| 7.80 | COc1cc2ncnc(N3CCC(OC(=O)Nc4ccc(C(C)C)cc4)CC3)c2cc1OC [Compound 1, (4-Isopropyl-phenyl)-carbamic acid 1-(6,7-dimethoxy-quinazolin-4-yl)-piperidin-4-yl ester] |
| 8.22 | COc1cc2ncnc(N3CCCC(COC(=O)Nc4ccc(C(C)C)cc4)C3)c2cc1OC (centres unmarked) [Compound 4] |
| 6.62 | CC(C)c1ccc(NC(=O)NC2CCN(c3ncnc4ccccc34)C2)cc1 (centres unmarked) [Compound 16, 1-(4-Isopropyl-phenyl)-3-(1-quinazolin-4-yl-pyrrolidin-3-yl)urea] |
| < 5.52 | COc1cc2ncnc(N3CCC(NC(=O)Cc4ccc(C(C)C)cc4)C3)c2cc1OC (centres unmarked) [Compound 35, N-[1-(6,7-Dimethoxy-quinazolin-4-yl)-pyrrolidin-3-yl]-2-(4-isopropyl-phenyl)-acetamide] |
| 6.25 | COc1cc2ncnc(N3CCCCC3COC(=O)Nc3ccc(C(C)C)cc3)c2cc1OC (centres unmarked) [Compound 33, (4-Isopropyl-phenyl)-carbamic acid 1-(6,7-dimethoxy-quinazolin-4-yl)-piperidin-2-ylmethyl ester] |
| 7.57 | COc1cc2ncnc(N3CCCC3COC(=O)Nc3ccc(C(C)C)cc3)c2cc1OC (centres unmarked) [Compound 9] |
| 7.19 | COc1cc2ncnc(N3CCC(OC(=O)Nc4ccc(C(C)C)cc4)C3)c2cc1OC (centres unmarked) [Compound 2, (4-Isopropyl-phenyl)-carbamic acid 1-(6,7-dimethoxy-quinazolin-4-yl)-pyrrolidin-3-yl ester] |
| 6.76 | COc1cc2ncnc(N3CCC(C(=O)Nc4ccc(OC(C)C)cc4)CC3)c2cc1OC [Compound 23, 1-(6,7-Dimethoxy-quinazolin-4-yl)-piperidine-4-carboxylic acid (4-isopropoxy-phenyl)-amide] |

| Structure (SMILES) | pIC50 |
| --- | --- |
| COc1cc2ncnc(N3CCC(OC(=O)Nc4ccc(OC5CCC5)nc4)C3)c2cc1OC (centres unmarked) [Compound 12, (6-Cyclobutoxy-pyridin-3-yl)-carbamic acid 1-(6,7-dimethoxy-quinazolin-4-yl)-pyrrolidin-3-yl ester] | 7.96 |
